Test system: Jurkat IL-2 Production
Test: Jurkat IL-2 Production Assay
Assay type: cell-based
Details: Homo sapiens, Jurkat cell (ATCC), 18-20 h incubation, PHA 5 μg/mL with 1% FBS, or PMA/Ionomycin with 30% FBS (table does not say which)
Method in brief: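 Jurkat cells were exposed to compound (0.25% DMSO final) for 10 min, then stimulated for 18–20 h at 37 °C. The 1% FBS condition used 5 μg/mL PHA; the high-serum condition (30% FBS) used 50 ng/mL PMA plus 500 ng/mL ionomycin. IC50 was derived from IL-2 production.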

Row | Compound | IC50 [nM]
1 | Cn1nc(C(F)(F)F)cc1-c1ccc2[nH]c(-c3ccncc3F)cc2c1 [Example 44, 2-(3-Fluoro-pyridin-4-yl)-5-(2-methyl-5-trifluoromethyl-2H-pyrazol-3-yl)-1H-indole] | 169
2 | Cc1cc(C#N)ccc1-c1ccc2[nH]c(-c3ccccc3Cl)cc2c1 [Example 129, 4-[2-(2-Chloro-phenyl)-1H-indol-5-yl]-3-methyl-benzonitrile] | 237
3 | CN(C)S(=O)(=O)c1ccc(-c2ccc3[nH]c(-c4c(F)cccc4F)cc3c2)c(C(F)(F)F)c1 [Example 97, 4-[2-(2,6-Difluoro-phenyl)-1H-indol-5-yl]-N,N-dimethyl-3-trifluoromethyl-benzenesulfonamide] | 72
4 | Cc1cc(S(=O)(=O)N(C)C)ccc1-c1ccc2[nH]c(-c3ccccc3F)c(C)c2c1 [Example 225, 4-(2-(2-fluorophenyl)-3-methyl-1H-indol-5-yl)-N,N,3-trimethylbenzenesulfonamide] | 153
5 | CCn1nc(C(F)(F)F)cc1-c1ccc2[nH]c(C3CCCOC3)cc2c1 (centres unmarked) [Example 199, 5-(1-ethyl-3-(trifluoromethyl)-1H-pyrazol-5-yl)-2-(tetrahydro-2H-pyran-3-yl)-1H-indole] | 86
6 | Cc1cc(C#N)ccc1-c1ccc2[nH]c(-c3c(F)cccc3F)cc2c1 [Example 27, 4-[2-(2,6-Difluoro-phenyl)-1H-indol-5-yl]-3-methyl-benzonitrile] | 97
7 | COc1cnc(-c2ccc3[nH]c(-c4c(F)cccc4Cl)cc3c2)c(C)c1 [Example 122, 2-(2-Chloro-6-fluoro-phenyl)-5-(5-methoxy-3-methyl-pyridin-2-yl)-1H-indole] | 260
8 | Cc1cccc(F)c1-c1cc2cc(-c3nc(-c4ccccn4)sc3C)ccc2[nH]1 [Example 221, 2-(2-Fluoro-6-methyl-phenyl)-5-(5-methyl-2-pyridin-2-yl-thiazol-4-yl)-1H-indole] | 95
9 | CCn1nc(-c2cccnc2)cc1-c1ccc2[nH]c(-c3ccccc3F)cc2c1 [Example 76, 2-(2-Fluoro-phenyl)-5-(2-ethyl-5-pyridin-3-yl-2H-pyrazol-3-yl)-1H-indole] | 108
10 | Cn1nc(-c2cccnc2)cc1-c1ccc2[nH]c(-c3c(F)cccc3F)cc2c1 [Example 19, 2-(2,6-Difluoro-phenyl)-5-(2-methyl-5-pyridin-3-yl-2H-pyrazol-3-yl)-1H-indole] | 198
11 | Cc1cc(C#N)ccc1-c1ccc2[nH]c(-c3ccc(S(C)(=O)=O)cc3F)cc2c1 [Example 133, 4-[2-(2-Fluoro-4-methanesulfonyl-phenyl)-1H-indol-5-yl]-3-methyl-benzonitrile] | 976
12 | Cc1cc(C#N)ccc1-c1ccc2[nH]c(-c3cnccc3C)cc2c1 [Example 144, methyl-4-(2-(4-methylpyridin-3-yl)-1H-indol-5-yl)benzonitrile] | 96
13 | Cc1cc(Cl)ccc1-c1ccc2[nH]c(-c3c(F)cccc3F)cc2c1 [Example 31, 5-(4-Chloro-2-methyl-phenyl)-2-(2,6-difluoro-phenyl)-1H-indole] | 174
14 | Cc1nc(C)c(-c2cc3cc(-c4ccc(C#N)cc4C)ccc3[nH]2)s1 [Example 148, 4-(2-(2,4-dimethylthiazol-5-yl)-1H-indol-5-yl)-3-methylbenzonitrile] | 547
15 | Cc1cc(S(=O)(=O)N(C)C)ccc1-c1ccc2[nH]c(-c3ccccc3)c(C)c2c1 [Example 226, N,N,3-trimethyl-4-(3-methyl-2-phenyl-1H-indol-5-yl)benzenesulfonamide] | 602
16 | COc1cc(C)c(-c2ccc3[nH]c(-c4cccc(C#N)c4F)cc3c2)cn1 [Example 152, 2-fluoro-3-(5-(6-methoxy-4-methylpyridin-3-yl)-1H-indol-2-yl)benzonitrile] | 731
17 | Cc1ccc(-c2ncco2)cc1-c1ccc2[nH]c(-c3c(F)cccc3F)cc2c1 [Example 23, 2-(2,6-Difluoro-phenyl)-5-(2-methyl-5-oxazol-2-yl-phenyl)-1H-indole] | 210
18 | CCn1nc(C(F)(F)F)cc1-c1ccc2[nH]c(-c3c(F)cccc3Cl)cc2c1 [Example 47, 2-(2-Chloro-6-fluoro-phenyl)-5-(2-ethyl-5-trifluoromethyl-2H-pyrazol-3-yl)-1H-indole] | 40
19 | Cc1sc(-c2cccnc2)nc1-c1ccc2[nH]c(-c3cncnc3C(C)C)cc2c1 [Example 68, 2-(4-Isopropyl-pyrimidin-5-yl)-5-(5-methyl-2-pyridin-3-yl-thiazol-4-yl)-1H-indole] | 152
20 | COc1ccc(-c2cc3cc(-c4ccc(C#N)cc4C)ccc3[nH]2)c(Cl)c1 [Example 132, 4-[2-(2-Chloro-4-methoxy-phenyl)-1H-indol-5-yl]-3-methyl-benzonitrile] | 319
21 | COc1cc(C#N)ccc1-c1ccc2[nH]c(-c3c(F)cccc3Cl)cc2c1 [Example 172, 4-[2-(2-Chloro-6-fluoro-phenyl)-1H-indol-5-yl]-3-methoxy-benzonitrile] | 15

Row | Compound | IC50 [nM]
22 | Cc1cc(-c2ncco2)ncc1-c1ccc2[nH]c(-c3c(F)cccc3F)cc2c1 [Example 208, 2-(2,6-Difluoro-phenyl)-5-(4-methyl-6-oxazol-2-yl-pyridin-3-yl)-1H-indole] | 97
23 | Cc1sc(-c2ccccn2)nc1-c1ccc2[nH]c(-c3ccc(F)cc3Cl)cc2c1 [Example 57, 2-(2-Chloro-4-fluoro-phenyl)-5-(5-methyl-2-pyridin-2-yl-thiazol-4-yl)-1H-indole] | 301
24 | Cc1sc(-c2cncnc2)nc1-c1ccc2[nH]c(-c3c(F)cccc3Cl)cc2c1 [Example 177, 2-(2-Chloro-6-fluoro-phenyl)-5-(5-methyl-2-pyrimidin-5-yl-thiazol-4-yl)-1H-indole] | 82
25 | COc1ccc(-c2ccc3[nH]c(-c4c(F)cccc4F)cc3c2)c(C(F)(F)F)c1 [Example 99, 2-(2,6-Difluoro-phenyl)-5-(4-methoxy-2-trifluoromethyl-phenyl)-1H-indole] | 344
26 | COCCOc1cc(C)c(-c2ccc3[nH]c(-c4c(F)cccc4Cl)cc3c2)cn1 [Example 163, 2-(2-chloro-6-fluorophenyl)-5-(6-(2-methoxyethoxy)-4-methylpyridin-3-yl)-1H-indole] | 108
27 | CCn1nc(-c2ccccn2)cc1-c1ccc2[nH]c(-c3c(F)cccc3F)cc2c1 [Example 16, 2-(2,6-Difluoro-phenyl)-5-(2-ethyl-5-pyridin-2-yl-2H-pyrazol-3-yl)-1H-indole] | 211
28 | Cc1cc(C(=O)O)ccc1-c1cc2cc(-c3cc(C(F)(F)F)nn3C)ccc2[nH]1 [Example 40] | 728
29 | CCn1nc(C(F)(F)F)cc1-c1ccc2[nH]c(-c3ccncc3F)cc2c1 [Example 192, 5-(1-ethyl-3-(trifluoromethyl)-1H-pyrazol-5-yl)-2-(3-fluoropyridin-4-yl)-1H-indole] | 149
30 | Cn1nc(C(F)(F)F)cc1-c1ccc2[nH]c(-c3c(F)cccc3F)cc2c1 [Example 1, 2-(2,6-Difluoro-phenyl)-5-(2-methyl-5-trifluoromethyl-2H-pyrazol-3-yl)-1H-indole] | 46
31 | CCn1nc(-c2cccnc2)nc1-c1ccc2[nH]c(-c3c(F)cccc3Cl)cc2c1 [Example 124, 2-(2-Chloro-6-fluoro-phenyl)-5-(2-ethyl-5-pyridin-3-yl-2H-[1,2,4]triazol-3-yl)-1H-indole] | 11
32 | Cc1cnccc1-c1cc2cc(-c3cc(C(F)(F)F)nn3C)ccc2[nH]1 [Example 37, 2-(3-Methyl-pyridin-4-yl)-5-(2-methyl-5-trifluoromethyl-2H-pyrazol-3-yl)-1H-indole] | 120
33 | COc1nccc(-c2cc3cc(-c4ccc(C#N)cc4C)ccc3[nH]2)c1Cl [Example 140, 4-(2-(3-chloro-2-methoxypyridin-4-yl)-1H-indol-5-yl)-3-methylbenzonitrile] | 142
34 | COc1ccc(-c2ccc3[nH]c(-c4c(F)cccc4F)cc3c2)c(C)c1 [Example 28, 2-(2,6-Difluoro-phenyl)-5-(4-methoxy-2-methyl-phenyl)-1H-indole] | 123
35 | COc1cc(F)c(-c2cc3cc(-c4ccc(C#N)cc4C)ccc3[nH]2)c(Cl)c1 [Example 202, 4-(2-(2-chloro-6-fluoro-4-methoxyphenyl)-1H-indol-5-yl)-3-methylbenzonitrile] | 57
36 | Cc1c(-c2c(F)cccc2F)[nH]c2ccc(-c3cc(C(F)(F)F)nn3C)cc12 [Example 227] | 284
37 | Cc1cc(-c2nnco2)ncc1-c1ccc2[nH]c(-c3c(F)cccc3Cl)cc2c1 [Example 119, 2-(2-Chloro-6-fluoro-phenyl)-5-(4-methyl-6-[1,3,4]oxadiazol-2-yl-pyridin-3-yl)-1H-indole] | 14
38 | Cc1cc(C#N)ccc1-c1ccc2[nH]c(-c3cc(C#N)ccc3Cl)cc2c1 [Example 138, 4-(2-(2-Chloro-5-cyanophenyl)-1H-indol-5-yl)-3-methylbenzonitrile] | 101
39 | Cc1cc(-c2nnco2)ccc1-c1ccc2[nH]c(-c3c(F)cccc3Cl)cc2c1 [Example 115, 2-(2-Chloro-6-fluoro-phenyl)-5-(2-methyl-4-[1,3,4]oxadiazol-2-yl-phenyl)-1H-indole] | 38
40 | CCc1sc(-c2cccnc2)nc1-c1ccc2[nH]c(-c3c(F)cccc3Cl)cc2c1 [Example 175, 4-[2-(2-chloro-6-fluorophenyl)-1H-indol-5-yl]-5-ethyl-2-(pyridin-3-yl)thiazole] | 11
41 | CCn1nc(-c2cnccn2)nc1-c1ccc2[nH]c(-c3c(F)cccc3Cl)cc2c1 [Example 187, 2-(2-Chloro-6-fluoro-phenyl)-5-(2-ethyl-5-pyrazin-2-yl-2H-[1,2,4]triazol-3-yl)-1H-indole] | 69
